Test results reported in EP4707280A1, “1,4-CINEOLE DERIVATIVE AND INTERMEDIATE THEREOF, HERBICIDE CONTAINING SAID DERIVATIVE AS ACTIVE INGREDIENT, METHOD FOR USING HERBICIDE, AND METHOD FOR PREPARING AGROCHEMICAL COMPOSITION” (HOKKO CHEMICAL INDUSTRY CO., LTD., priority 2023, dated 2024).

What was measured:
Format in all cases: in vivo
Echinochloa crus-galli [1] = experiment: Test Example 4: herbicidal effect test by stem and leaf treatment in upland field; details: Echinochloa crus-galli; 120 g per 10 ares; sprayed seven days after sowing, upland soil; 14 days after application; read-out: weed inhibition rate
[2] = system: Echinochloa crus-galli var. formosensis; experiment: Test Example 2: herbicidal effect test by application during growth period of paddy rice; details: Echinochloa crus-galli; 120 g per 10 ares; applied seven days after sowing, flooded pots; 14 days after application; read-out: weed inhibition rate
Outline: (§1)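 Paddy soil in flooded pots (water depth about 3 cm) was sown with weed seeds and kept in a glass greenhouse. Seven days after sowing, a diluted emulsifiable concentrate was applied by dropper at 120 g active ingredient per 10 ares. Weed inhibition was evaluated 14 days after application, in duplicate.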

Scirpus juncoides [3] = experiment: as above; details: Schoenoplectiella juncoides; 120 g per 10 ares; applied seven days after sowing, flooded pots; 14 days after application; read-out: weed inhibition rate
Outline: as §1

[4] = system: Echinochloa crus-galli var. formosensis; experiment: Test Example 5: herbicidal effect test by soil application in paddy rice (low dose); details: Echinochloa crus-galli, soil, 336 h; 7.5 g per 10 ares; applied immediately after sowing, flooded pots; 14 days after application; read-out: weed inhibition rate
Outline: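 Paddy-soil pots, weeds sown 0–1 cm deep and flooded to about 3 cm in a greenhouse. Emulsifiable concentrate diluted in water and dropped in right after sowing at 7.5 g active ingredient per 10 ares. Duplicates; effect scored 14 days after application.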

[5] = system: Echinochloa crus-galli var. formosensis; experiment: Test Example 1: herbicidal effect test by soil application in paddy rice; details: Echinochloa crus-galli, soil, 336 h; 120 g active ingredient per 10 ares; applied immediately after sowing, flooded pots; 14 days after application; read-out: weed inhibition rate
Outline: (§2)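 Soil-applied test under flooded paddy conditions (~3 cm water) in a glass greenhouse. Seeds were sown shallow (0–1 cm, 30 per species), then compound was dripped in as diluted emulsifiable concentrate at 120 g a.i./10 a.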

Scirpus juncoides [6] = experiment: as above; details: Schoenoplectiella juncoides, soil, 336 h; 120 g active ingredient per 10 ares; applied immediately after sowing, flooded pots; 14 days after application; read-out: weed inhibition rate
Outline: as §2

Digitaria ciliaris [7] = experiment: Test Example 8: herbicidal effect test by stem and leaf treatment in upland field (low dose); details: Digitaria ciliaris; 7.5 g per 10 ares; sprayed seven days after sowing, upland soil; 14 days after application; read-out: weed inhibition rate
Echinochloa crus-galli [8] = experiment: as above; details: Echinochloa crus-galli; 7.5 g per 10 ares; sprayed seven days after sowing, upland soil; 14 days after application; read-out: weed inhibition rate
Digitaria ciliaris [9] = experiment: Test Example 3: herbicidal effect test by soil application in upland field; details: Digitaria ciliaris, 120 g per 10 ares, sprayed one day after sowing, 14 days after application, read-out: weed inhibition rate
Outline: (§3)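 Pre-emergence test: seeds mixed into top 1 cm of alluvial loam upland soil in pots; emulsifiable concentrate diluted in water sprayed on soil one day after sowing at 100 L/10 a, 120 g a.i./10 a. Weed inhibition rate (%) scored at 14 days, in duplicate.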

Echinochloa crus-galli [10] = experiment: as above; details: Echinochloa crus-galli, 120 g per 10 ares, sprayed one day after sowing, 14 days after application, read-out: weed inhibition rate
Outline: as §3

Digitaria ciliaris [11] = experiment: Test Example 7: herbicidal effect test by soil application in upland field (low dose); details: Digitaria ciliaris, 7.5 g per 10 ares, sprayed one day after sowing, 14 days after application, read-out: weed inhibition rate
Outline: (§4)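 Upland alluvial loam pots, seeds mixed into top 1 cm of soil; one day after sowing, diluted emulsifiable concentrate sprayed on soil at 100 L/10 a, giving 7.5 g active ingredient/10 a. Duplicate pots; weed inhibition rate (%) scored 14 days after application.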

Echinochloa crus-galli [12] = experiment: as above; details: Echinochloa crus-galli, 7.5 g per 10 ares, sprayed one day after sowing, 14 days after application, read-out: weed inhibition rate
Outline: as §4

Digitaria ciliaris [13] = experiment: Test Example 4: herbicidal effect test by stem and leaf treatment in upland field; details: Digitaria ciliaris; 120 g per 10 ares; sprayed seven days after sowing, upland soil; 14 days after application; read-out: weed inhibition rate
[14] = system: Echinochloa crus-galli var. formosensis; experiment: Test Example 6: herbicidal effect test by application during growth period of paddy rice (low dose); details: Echinochloa crus-galli; 7.5 g per 10 ares; applied seven days after sowing, flooded pots; 14 days after application; read-out: weed inhibition rate
Outline: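 Paddy-soil pots, flooded ~3 cm after sowing weed seeds at 0-1 cm depth, greenhouse-grown. Seven days after sowing, diluted emulsifiable concentrate applied by dropper at 7.5 g active ingredient per 10 ares. Weed inhibition rate (%) scored 14 days after application, in duplicate.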

CC(C)C12CC(OCc3ccccc3C#N)C(C)(CC1Cl)O2 (stereo not shown) [1-1304, 2-[(5-chloro-1-methyl-4-isopropyl-7-oxabicyclo[2.2.1]heptan-2-yl)oxymethyl]benzonitrile]
≥ 80%: inhibition at 1200 g/ha (Echinochloa crus-galli [1]) | inhibition at 1200 g/ha [2] | inhibition at 1200 g/ha (Scirpus juncoides [3]) | inhibition at 75 g/ha [4] | pest or weed control at 1200 g/ha [5] | pest or weed control at 1200 g/ha (Scirpus juncoides [6]) | inhibition at 75 g/ha (Digitaria ciliaris [7]) | inhibition at 75 g/ha (Echinochloa crus-galli [8]) | inhibition at 1200 g/ha (Digitaria ciliaris [9]) | inhibition at 1200 g/ha (Echinochloa crus-galli [10]) | inhibition at 75 g/ha (Digitaria ciliaris [11]) | inhibition at 75 g/ha (Echinochloa crus-galli [12]) | inhibition at 1200 g/ha (Digitaria ciliaris [13]) | inhibition at 75 g/ha [14]

CC(C)C12CC(OCc3ccccc3F)C(C)(CC1I)O2 (stereo not shown) [1-1421, 2-[(2-fluorophenyl)methoxy]-5-iodo-1-methyl-4-isopropyl-7-oxabicyclo[2.2.1]heptane]
≥ 80%: inhibition at 1200 g/ha (Echinochloa crus-galli [1]) | inhibition at 1200 g/ha [2] | inhibition at 1200 g/ha (Scirpus juncoides [3]) | inhibition at 75 g/ha [4] | pest or weed control at 1200 g/ha [5] | pest or weed control at 1200 g/ha (Scirpus juncoides [6]) | inhibition at 75 g/ha (Digitaria ciliaris [7]) | inhibition at 75 g/ha (Echinochloa crus-galli [8]) | inhibition at 1200 g/ha (Digitaria ciliaris [9]) | inhibition at 1200 g/ha (Echinochloa crus-galli [10]) | inhibition at 75 g/ha (Digitaria ciliaris [11]) | inhibition at 75 g/ha (Echinochloa crus-galli [12]) | inhibition at 1200 g/ha (Digitaria ciliaris [13]) | inhibition at 75 g/ha [14]

CC(C)C12CC(OCc3cccs3)C(C)(CC1Cl)O2 (stereo not shown) [1-1323, 2-chloro-1-isopropyl-4-methyl-5-(2-thienylmethoxy)-7-oxabicyclo[2.2.1]heptane]
≥ 80%: inhibition at 1200 g/ha (Echinochloa crus-galli [1]) | inhibition at 1200 g/ha [2] | inhibition at 1200 g/ha (Scirpus juncoides [3]) | inhibition at 75 g/ha [4] | pest or weed control at 1200 g/ha [5] | pest or weed control at 1200 g/ha (Scirpus juncoides [6]) | inhibition at 75 g/ha (Digitaria ciliaris [7]) | inhibition at 75 g/ha (Echinochloa crus-galli [8]) | inhibition at 1200 g/ha (Digitaria ciliaris [9]) | inhibition at 1200 g/ha (Echinochloa crus-galli [10]) | inhibition at 75 g/ha (Digitaria ciliaris [11]) | inhibition at 75 g/ha (Echinochloa crus-galli [12]) | inhibition at 1200 g/ha (Digitaria ciliaris [13]) | inhibition at 75 g/ha [14]

CO[C@H]1C[C@]2(C)O[C@@]1(C(C)C)CC2OCC=C(C)C (mixture of isomers) [1-799, (1R,2S,4S,SR)-1-isopropyl-2-methoxy-4-methyl-5-(3-methylbut-2-enoxy)-7-oxabicyclo[2.2.1]heptane]
≥ 80%: inhibition at 1200 g/ha (Echinochloa crus-galli [1]) | inhibition at 1200 g/ha [2] | inhibition at 1200 g/ha (Scirpus juncoides [3]) | inhibition at 75 g/ha [4] | pest or weed control at 1200 g/ha [5] | pest or weed control at 1200 g/ha (Scirpus juncoides [6]) | inhibition at 75 g/ha (Digitaria ciliaris [7]) | inhibition at 75 g/ha (Echinochloa crus-galli [8]) | inhibition at 1200 g/ha (Digitaria ciliaris [9]) | inhibition at 1200 g/ha (Echinochloa crus-galli [10]) | inhibition at 75 g/ha (Digitaria ciliaris [11]) | inhibition at 75 g/ha (Echinochloa crus-galli [12]) | inhibition at 1200 g/ha (Digitaria ciliaris [13]) | inhibition at 75 g/ha [14]

CC(C)C12CC(OCc3cccs3)C(C)(CC1I)O2 (stereo not shown) [1-1456, 2-iodo-1-isopropyl-4-methyl-5-(2-thienylmethoxy)-7-oxabicyclo[2.2.1]heptane]
≥ 80%: inhibition at 1200 g/ha (Echinochloa crus-galli [1]) | inhibition at 1200 g/ha [2] | inhibition at 1200 g/ha (Scirpus juncoides [3]) | inhibition at 75 g/ha [4] | pest or weed control at 1200 g/ha [5] | pest or weed control at 1200 g/ha (Scirpus juncoides [6]) | inhibition at 75 g/ha (Digitaria ciliaris [7]) | inhibition at 75 g/ha (Echinochloa crus-galli [8]) | inhibition at 1200 g/ha (Digitaria ciliaris [9]) | inhibition at 1200 g/ha (Echinochloa crus-galli [10]) | inhibition at 75 g/ha (Digitaria ciliaris [11]) | inhibition at 75 g/ha (Echinochloa crus-galli [12]) | inhibition at 1200 g/ha (Digitaria ciliaris [13]) | inhibition at 75 g/ha [14]
